This is an account of results in US6455271B1, “Identification of novel antimicrobial agents using membrane potential indicator dyes” (XOMA Technology, Ltd, priority 1998, dated 2002).

In brackets after ≈: the same amount, converted by molar mass. Read-outs that look alike come from different tables or passages of the source. Square brackets hold non-standard residues; d marks the D form. Peptide text beside a SMILES is read from it.

For data set [1], the system named is Madin-Derby canine kidney epithelial (MDCK) cells. As for the experimental part:
The same procedure was also carried out using mammalian Madin-Derby canine kidney epithelial (MDCK) cells (ATCC Accession No. CCL34). The MDCK cells were cultured until confluent in MEM media supplemented with 10% fetal calf serum (FCS) and L-glutamine. The cells were harvested and resuspended to approximately 1-2×10^6 cells/mL in RPMI media, treated with XMP.391 or XMP.445 at concentrations varying from 5 μg/mL to 100 μg/mL, and incubated for 1 hour. The cells were then stained with DiOC6(3) for 30 minutes and fluorescence intensity was determined in the same manner as described above for C. albicans.
(§1) The relative effect of varying concentrations of the antifungal agent miconazole on fungal C. albicans cells treated with membrane potential indicator dye DiOC6(3) [Molecular Probes], mammalian MDCK cells treated with DiOC6(3) and mammalian MDCK cells treated with PI, was assessed as described above in Examples 1 and 2, except that fungal C. albicans or mammalian MDCK cells were resuspended to a concentration of 1×10^6 cells/mL.

For the next data set, the system named is C. albicans SLU#1 strain. The data set is classed as cell-based, Candida albicans.
A further data set relates to fungal cells. The experiment in a line: Confocal microscopy localization of membrane potential indicator dye in fungal cells. The settings on record: DiOC6(3) 10 ng/mL or MitoTracker Red CM-H2Xros 1 μg/mL, 1 hour peptide incubation. Type of data set: cell-based. As to the method:
Confocal microscopy provides focused fluorescence detection, one plane or slice at a time, at a focus level that allows unobstructed localization of fluorescence within cells. A suspension of 1×10^6 fungal cells/mL was prepared as described above in Example 1 and 1 mL was dispensed into each of four Eppendorf microcentrifuge tubes. Two μL of 1 mg/mL XMP.445 (in saline) was added to two tubes and all four tubes were incubated for 1 hour at 30° C. After the incubation, all tubes were centrifuged in an Eppendorf 5415 centrifuge. The supernatant was removed and the pellet resuspended in 1 mL of SDB. The membrane potential indicator dye DiOC6(3) (diluted in SDB from a stock solution of 2 mg/mL in EtOH) was added to one set of peptide-treated and untreated tubes to a final concentration of 10 ng/mL. The membrane potential indicator dye MitoTracker™ Red CM-H2Xros (from a freshly prepared solution of 500 μg/mL in DMSO) was added to another set of peptide-treated and untreated tubes to a final concentration of 1 μg/mL. The tubes were incubated at 30° C. for 30 min. After the incubation the tubes were centrifuged and the supernatant removed. The pellets were resuspended in 100 μL of 30% glycerol/PBS solution. Three μL from each tube was pipetted onto a microscope slide with a No. 1 cover glass and placed onto a Zeiss 510 Confocal Microscope that uses LSM Version 2.01 software. […]

For data set [2], the system named is Candida albicans strain SLU#1. The experiment in a line: Flow cytometry of fungal cells treated with test agent and membrane potential dye DiOC6(3). The data set is classed as cell-based. The settings on record: for concentration at which loss of fungal cell viability occurs: C. albicans SLU#1; for change in DiOC6(3) fluorescence intensity (mean channel from baseline) vs. concentration: C. albicans, 1 hour incubation with agent, 10 ng/mL DiOC6(3), FL1 530 nm, FIG. 1 / FIG. 3. As to the method:
A stock fungal cell suspension was prepared as follows. Fungi (Candida albicans strain SLU#1) were cultured on Sabouraud's dextrose agar plates [1 L water, 10 g neopeptone, 20 g dextrose, 15 g Bacto Agar]. One or two colonies from the agar plate were inoculated into 5 mL of Sabouraud's dextrose broth (SDB) [1 L water, 10 g neopeptone, 20 g dextrose] in a sterile 10 mL polypropylene tube and incubated for about 18 hours at 30° C. After this incubation, 4 mL of the fungal culture was inoculated into a flask containing 100 mL of SDB and incubated for about 5 hours or until log growth phase was reached. The culture was centrifuged at 3000 rpm for 5 minutes (Sorvall RT6000B centrifuge), the supernatant was decanted and the pellets were resuspended in a total of 30 mL of SDB. Fungal cell concentration was determined either by absorbance at 570 nm or by diluting 1:10 with Trypan Blue and counting the number of fungal cells using a hemacytometer. The suspension was diluted with SDB to obtain a stock fungal cell suspension of approximately 1-2×10^6 CFU/mL.
Stock 1 mg/mL solutions of peptides XMP.391 and XMP.445 were prepared in saline, and six 2-fold serial dilutions were prepared using phosphate buffered saline (PBS). The fungal cell suspension was divided into 1 mL aliquots, and approximately 20 μL of each serial dilution of XMP.391 or XMP.445 peptide solution was added to an aliquot of fungal cell suspension to obtain final peptide concentrations of 0.313, 0.625, 1.25, 2.5, 5, 10 and 20 μg/mL in the aliquots. No peptide solution was added to the auto-fluorescence and baseline controls. The aliquots were incubated for 1 hour at 30° C. After the incubation, all aliquots were centrifuged at 3000 rpm for 5 minutes (Sorvall RT6000B) and the supernatant removed. The auto-fluorescence control aliquot was resuspended in 1 mL of SDB; the remainder of the samples and the baseline control were resuspended in 1 mL of 10 ng/mL DiOC6(3)/SDB. The auto-fluorescence control thus contained fungal cells in SDB alone (without XMP peptide and without dye), while the baseline control contained fungal cells with dye (but without XMP peptide). […]
The samples were analyzed for fluorescence on the FACScan flowcytometer [Becton-Dickinson, Mountain View, Calif.] using the fl1 detector at a wavelength of 530 nm using the following parameters:
The auto-fluorescence control was used for gating and fluorescence sensitivity was determined using the baseline control. The percent change in fluorescent intensity, expressed as mean channels, was determined by dividing the difference between the sample and baseline values by the baseline value: (sample fl1−baseline fl1)/baseline fl1×100.
(In general: In flow cytometry, cells or beads pass a laser one at a time.)

The next data set deals with C. albicans SLU#1. The data set can be described thus: Propidium iodide (PI) uptake by fungal cells, flow cytometry. The data set is classed as cell-based, Candida albicans. The settings on record: C. albicans SLU#1, 10 μg/mL PI, FL2 585 nm; FIG. 2.
A further data set deals with Candida albicans, SLU-1. The experiment in a line: 28-day comparative survival efficacy study in mice systemically infected with Candida albicans, oral gavage. Type of data set: in vivo. The settings on record: for mortality vs dextrose-treated controls: male DBA/2 mice, eight times, 28 days. As to the method: XMP.445 was tested for activity upon oral administration (oral activity) in a 28-day comparative survival efficacy study in mice systemically infected with Candida albicans. Specifically, male DBA/2 mice (Charles River Laboratories) six weeks of age were dosed with 7.9×10^4 Candida albicans, SLU-1 in 100 μl intravenously via the tail vein in a single dosage on day 0. Treatment began immediately thereafter with 400 μl oral gavage of either 0.5% dextrose, or XMP.445 in 0.5% dextrose at levels of either 10 mg/kg or 20 mg/kg every other day for a total of eight times. Amphotericin B (Fungizone®) was administered intravenously at 0.5 mg/kg as a positive control every other day for a total of eight times. Twice-day monitoring (once daily on weekends and holidays) for mortality was performed.

A further data set concerns MDCK cells. As to the method:
as §1

The next data set has as its system CACO-2 and MDCK cells. Type of data set: in vitro ADME. As for the experimental part: Various BPI-derived peptides were screened for oral absorption in in vitro screening assays using CACO-2 and MDCK cells. Cultured monolayers of CACO-2 (Human colon carcinoma) [Audus, K. L., et al. Pharm. […] The cells were grown to confluency and allowed to differentiate. The integrity of the monolayers was determined by measuring the transepithelial resistance. The cells were incubated with peptide on the apical side for 2.5 hours in MDCK screening or 4 hours for CACO-2 screening. The transepithelial transport of the peptide was measured by quantitative HPLC analysis of the incubation media on the basolateral side of the cells. Radiolabelled mannitol and cortisone were used as positive controls.

The conditions of data set [3]: background statement; cited from earlier work.
A further data set concerns bacterial growth. The settings on record: background statement; cited from earlier work.

Consider `CC[C@H](C)[C@H](NC(=O)[C@H](CC(C)C)NC(=O)[C@H](Cc1c[nH]c2ccccc12)NC(=O)CNC(=O)[C@@H](NC(=O)[C@@H](N)CCCCN)C(C)C)C(=O)N[C@@H](CCC(N)=O)C(=O)N[C@@H](CC(C)C)C(=O)N[C@@H](Cc1ccccc1)C(=O)N[C@@H](Cc1c[nH]cn1)C(=O)N[C@@H](CCCCN)C(=O)N[C@@H](CCCCN)C(=O)O` [XMP.391] (H-KVGWLIQLFHKK-OH; N-terminus and C-terminus assumed), for which, in data set [1], the “change in DiOC6(3) fluorescence intensity in mammalian cells” value was “no substantial increase in fluorescence intensity”. This compound also came in with a minimum fungicidal concentration in the data set on C. albicans SLU#1 strain of 2 µg/mL (≈ 1.34 µM).
Regarding `CC[C@H](C)[C@H](NC(=O)[C@H](CC(C)C)NC(=O)[C@H](Cc1c[nH]c2ccccc12)NC(=O)CNC(=O)[C@H](NC(=O)[C@H](N)CCCCN)C(C)C)C(=O)N[C@@H](CCC(N)=O)C(=O)N[C@@H](CC(C)C)C(=O)N[C@@H](Cc1ccccc1)C(=O)N[C@@H](Cc1c[nH]cn1)C(=O)N[C@H](CCCCN)C(=O)N[C@H](CCCCN)C(=O)O` [XMP.445] (H-[dK][dV]GWLIQLFH[dK][dK]-OH; N-terminus and C-terminus assumed), the “fluorescence intensity and localization by confocal microscopy vs untreated cells” value in the data set with fungal cells was “increased fluorescence intensity that was localized at the mitochondria”. Further, in data set [2], the “concentration at which loss of fungal cell viability occurs” value is recorded as “about 4 μg/mL” and the “change in DiOC6(3) fluorescence intensity (mean channel from baseline) vs. concentration” value is reported as “concentration-dependent increase in fluorescence intensity”. For the same compound, the “change in DiOC6(3) fluorescence intensity in mammalian cells” value in [1] is on record as “no substantial increase in fluorescence intensity”. In the data set with C. albicans SLU#1, the “fungal cell viability by PI uptake” value is recorded as “reduction of fungal cell viability or fungal cell death”. Moreover, the “mortality vs dextrose-treated controls” value with Candida albicans, SLU-1 (oral gavage 10 mg/kg every other day) is on record as “significant improvement (p-value of 0.025)”. Also, the “mortality vs dextrose-treated controls” value in the data set with Candida albicans, SLU-1 (oral gavage 10 mg/kg or 20 mg/kg every other day) was “improvements in mortality compared with the dextrose-treated controls”. Moreover, the “oral activity (study conclusion)” value in the data set with Candida albicans, SLU-1 (mice systemically infected with C. albicans, oral gavage) is “has oral antifungal activity”. For the same compound, the “mammalian cell viability by PI uptake” value in the data set with MDCK cells (MDCK cells, PI, XMP.445 even at a concentration of 50-fold or greater) is listed as “did not substantially affect viability of mammalian cells”. Besides, in the data set on CACO-2 and MDCK cells, the “intestinal absorption screening outcome” value is recorded as “potential orally available compound”. In addition, the minimum fungicidal concentration in the data set on C. albicans SLU#1 strain was determined as 4 µg/mL (≈ 2.67 µM).
`Clc1ccc(COC(Cn2ccnc2)c2ccc(Cl)cc2Cl)c(Cl)c1` (stereo not drawn) [miconazole, reference compound]: in data set [2], the “concentration at which loss of fungal cell viability occurs” value is on record as “less than or equal to 1 μg/mL” and the “change in DiOC6(3) fluorescence intensity (mean channel from baseline) vs. concentration” value is given as “concentration-dependent increase in fluorescence intensity”. In the data set on MDCK cells, the “mammalian cell viability by PI uptake” value is reported as “increase in fluorescence intensity indicating cell death”.
As for gentamicin, in data set [3], the “concentration that produces a toxic effect” value is 12000 ng/mL. The “concentration required to produce a therapeutic effect” value with bacterial growth was 8 µg/mL.
